Where two headings read alike, the source gives them in different places.
Tests used:
[1] = biological target: IKZF2 (Homo sapiens, UniProt Q96SW2+Q9UKS7); experiment: Prolabel quantification of IKZF2 protein levels in 293GT cells; format: cell-based; details: 293GT cells; for inhibition at 10 µM: read-out: IKZF2 % protein reduction at 10 μM, 24 h; for DC50: Prolabel assay, read-out: IKZF2 EC50
Experimental: (§1) The Prolabel system from DiscoverX was used to develop high-throughput and quantitative assays to measure changes in IKZF1, IKZF2 and GSPT1 protein levels in response to compounds. The prolabel tag was derived from the alpha fragment of beta galactosidase and has the following protein sequence: mssnslavvlqrrdwenpgvtqlnrlaahppfaswrnseeartdrpsqqlrslnge. The complementary fragment of beta-galactosidase (from DiscoverX), is added to the prolabel tag to form an active beta galactosidase enzyme whose activity can be precisely measured. In this way, the levels of a fusion protein with the prolabel tag can be quantified in cell lysates.
(§2) Lentiviral vectors, based on the Invitrogen pLenti6.2/V5 DEST backbone, were constructed that placed the prolabel tag upstream of IKZF1, IKZF2 or GSPT1 and expressed the fusion protein from a CMV promoter.
(§3) To ensure moderate and consistent expression of the prolabel fusion proteins across all cells in the population, stable cell lines were constructed from cells expressing a single copy of the construct. Lentivirus packaged with the constructs was made using the Virapower kit from Invitrogen.
(§4) The levels of prolabel tagged fusion proteins in compound treated cell lines were measured as follows:
(§5) Day 1, Cells were diluted to 1.0×10^6 cells/ml in normal growth medium. 17.5 μL of cells were plated in each well of a solid white 384 well plate. Plates were incubated overnight in a 37° C. tissue culture incubator.
(§6) Day 2, Serial dilutions of compounds were made in 384 well plates from 10 mM stocks. 15 μL of DMSO was added to each well of a 384 well plate. In the first column 15 μL of stock compound was added. The solution was mixed and 15 μL was transferred to the next column. This was repeated until 20 two-fold dilutions were prepared. 2.5 μL of diluted compounds were transferred into 60 μL of cell culture medium in another 384 well plate, and mixed well. 2.5 μL of this mixture was added to the plated cells. The final DMSO concentration was 0.5% and the highest concentration of compound was 50 μM. Plates were incubated overnight (e.g., about 14 h, 18 h, or 24 h) in a 37° C. tissue culture incubator.
(§7) Day 3, Plates were removed from the incubator and allowed to equilibrate at rt for 30 minutes. Prolabel substrate (DiscoverX PathHunter Prolabel Detection Kit, User manual: 93-0180) was added as described by the manufacturers protocols. Plates were incubated at rt for three hours and luminescence was read using an Envision reader (Perkin Elmer) Data was analyzed and visualized using the Spotfire software package.

[2] = biological target: IKZF1 (Homo sapiens, UniProt Q13422+Q96SW2); experiment: Prolabel quantification of IKZF1 protein levels in 293GT cells; format: cell-based; details: Prolabel assay, read-out: IKZF1 EC50
IKZF1, sequence (Q13422 whole entry): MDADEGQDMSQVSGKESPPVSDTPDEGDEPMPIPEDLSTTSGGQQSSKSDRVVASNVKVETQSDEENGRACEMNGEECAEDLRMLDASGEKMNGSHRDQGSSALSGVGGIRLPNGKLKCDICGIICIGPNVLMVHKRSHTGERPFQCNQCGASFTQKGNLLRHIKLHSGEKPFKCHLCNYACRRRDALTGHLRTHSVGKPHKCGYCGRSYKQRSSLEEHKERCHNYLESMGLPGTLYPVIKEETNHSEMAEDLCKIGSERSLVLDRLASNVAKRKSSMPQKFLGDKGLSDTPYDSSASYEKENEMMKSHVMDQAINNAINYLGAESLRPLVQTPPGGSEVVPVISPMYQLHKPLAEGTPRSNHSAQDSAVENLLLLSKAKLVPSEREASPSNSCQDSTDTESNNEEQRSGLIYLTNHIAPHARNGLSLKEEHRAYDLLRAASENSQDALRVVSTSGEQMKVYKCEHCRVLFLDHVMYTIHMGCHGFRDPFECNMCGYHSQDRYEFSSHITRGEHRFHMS
IKZF1, sequence (Q96SW2 whole entry): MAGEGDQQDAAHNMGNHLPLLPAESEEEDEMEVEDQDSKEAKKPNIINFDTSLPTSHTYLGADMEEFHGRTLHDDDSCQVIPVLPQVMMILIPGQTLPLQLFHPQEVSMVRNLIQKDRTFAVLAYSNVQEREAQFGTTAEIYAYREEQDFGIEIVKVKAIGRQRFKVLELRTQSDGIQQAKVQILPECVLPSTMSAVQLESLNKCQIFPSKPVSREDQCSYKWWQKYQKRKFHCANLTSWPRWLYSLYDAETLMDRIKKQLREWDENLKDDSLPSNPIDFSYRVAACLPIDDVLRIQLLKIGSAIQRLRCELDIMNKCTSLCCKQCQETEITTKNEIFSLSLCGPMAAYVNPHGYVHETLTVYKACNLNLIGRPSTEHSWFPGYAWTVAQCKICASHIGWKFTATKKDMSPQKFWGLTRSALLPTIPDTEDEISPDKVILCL
IKZF1, sequence (Q16531 whole entry partner): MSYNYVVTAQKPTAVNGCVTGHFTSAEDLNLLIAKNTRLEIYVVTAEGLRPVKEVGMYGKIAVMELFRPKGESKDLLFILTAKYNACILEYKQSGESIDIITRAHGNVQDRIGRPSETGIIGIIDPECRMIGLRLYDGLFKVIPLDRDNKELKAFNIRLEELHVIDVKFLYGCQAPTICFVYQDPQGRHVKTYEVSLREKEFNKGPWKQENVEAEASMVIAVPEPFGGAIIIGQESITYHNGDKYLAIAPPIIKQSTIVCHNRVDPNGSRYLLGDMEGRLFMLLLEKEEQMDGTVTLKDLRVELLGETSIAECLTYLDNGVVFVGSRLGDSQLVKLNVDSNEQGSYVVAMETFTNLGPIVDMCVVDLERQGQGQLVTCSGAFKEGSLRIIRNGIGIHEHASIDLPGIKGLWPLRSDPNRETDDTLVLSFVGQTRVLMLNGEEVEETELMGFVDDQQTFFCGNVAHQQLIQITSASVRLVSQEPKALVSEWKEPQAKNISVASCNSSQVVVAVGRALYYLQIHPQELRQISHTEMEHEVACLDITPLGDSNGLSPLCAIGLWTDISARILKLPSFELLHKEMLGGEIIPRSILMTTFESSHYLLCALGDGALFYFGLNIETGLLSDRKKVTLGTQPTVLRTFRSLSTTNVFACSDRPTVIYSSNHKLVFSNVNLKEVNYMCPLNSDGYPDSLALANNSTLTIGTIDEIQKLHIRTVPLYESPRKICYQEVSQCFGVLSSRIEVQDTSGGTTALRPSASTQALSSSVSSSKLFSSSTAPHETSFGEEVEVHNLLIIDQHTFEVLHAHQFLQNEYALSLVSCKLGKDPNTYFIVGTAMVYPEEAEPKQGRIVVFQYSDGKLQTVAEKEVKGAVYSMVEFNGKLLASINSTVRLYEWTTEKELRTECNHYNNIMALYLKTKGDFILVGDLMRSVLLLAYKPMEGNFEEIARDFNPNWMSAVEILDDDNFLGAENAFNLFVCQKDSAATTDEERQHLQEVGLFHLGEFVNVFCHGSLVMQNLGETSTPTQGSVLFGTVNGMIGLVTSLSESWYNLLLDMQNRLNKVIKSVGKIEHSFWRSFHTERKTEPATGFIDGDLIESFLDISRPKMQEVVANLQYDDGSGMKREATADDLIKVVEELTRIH
Experimental: as §1, §2, §3, §4, §5, §6, §7

IKZF2, sequence (Q9UKS7 whole entry, the tested form may be a part): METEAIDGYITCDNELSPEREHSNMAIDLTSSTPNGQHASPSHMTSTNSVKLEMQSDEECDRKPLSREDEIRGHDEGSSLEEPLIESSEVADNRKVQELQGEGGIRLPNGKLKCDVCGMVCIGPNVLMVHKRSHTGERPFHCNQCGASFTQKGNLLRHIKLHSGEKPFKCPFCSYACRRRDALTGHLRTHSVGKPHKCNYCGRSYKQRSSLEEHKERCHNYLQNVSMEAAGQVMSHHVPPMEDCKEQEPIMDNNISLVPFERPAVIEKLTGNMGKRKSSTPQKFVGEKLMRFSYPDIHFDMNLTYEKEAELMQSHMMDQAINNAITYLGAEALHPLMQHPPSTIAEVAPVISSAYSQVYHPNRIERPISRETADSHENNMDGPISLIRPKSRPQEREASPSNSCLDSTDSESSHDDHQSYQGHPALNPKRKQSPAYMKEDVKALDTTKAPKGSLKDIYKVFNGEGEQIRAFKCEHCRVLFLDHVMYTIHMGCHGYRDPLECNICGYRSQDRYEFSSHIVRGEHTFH
IKZF2, sequence (Q96SW2 whole entry, the tested form may be a part): as the sequence (Q96SW2 whole entry) above
IKZF2, sequence (Q16531 whole entry partner, the tested form may be a part): as the sequence (Q16531 whole entry partner) above

| inhibition at 10 µM ([1]; 24 h, 10 μM, 24 h) [%] | DC50 [1] [nM] | DC50 [2] [nM] | IKZF2 % protein reduction at 10 μM, 24 h ([1]; 10 μM, 24 h) [%] | Structure (SMILES) | inhibition at 10 µM ([1]; 10 μM, 24 h) [%] |
| --- | --- | --- | --- | --- | --- |
| 30 | 170 | > 30000 |  | O=C1CCC(N2Cc3cc(C4CCCN(Cc5ccccc5)CC4)ccc3C2=O)C(=O)N1 (single isomer, unassigned) [Compound I-190, 3-(5-(1-benzylazepan-4-yl)-1-oxoisoindolin-2-yl)piperidine-2,6-dione] |  |
| 40 | 590 | > 30000 |  | O=C1CCC(N2Cc3cc(C4CCN([C@@H](CO)c5ccccc5)CC4)ccc3C2=O)C(=O)N1 (single isomer, unassigned) [Compound I-202] |  |
| 65 | 9 | > 30000 |  | CC(c1ccccc1)N1CCC(c2ccc3c(c2)CN(C2CCC(=O)NC2=O)C3=O)CC1 (single isomer, unassigned) [Compound I-230] |  |
| 70 | 17 | > 30000 |  | C[C@H](c1ccccc1)N1CCC(c2ccc3c(c2)CN(C2CCC(=O)NC2=O)C3=O)CC1 (single isomer, unassigned) [Compound I-247] |  |
| 40 | 850 | > 30000 |  | O=C1CCC(N2Cc3cc(C4CCN(C(CO)c5ccccc5)CC4)ccc3C2=O)C(=O)N1 (single isomer, unassigned) [Compound I-249] |  |
|  | 210 | > 30000 | 20 | O=C1CCC(N2Cc3cc(C4CCCN(Cc5ccccc5)CC4)ccc3C2=O)C(=O)N1 (single isomer, unassigned) [Compound I-273, 3-(5-(1-benzylazepan-4-yl)-1-oxoisoindolin-2-yl)piperidine-2,6-dione] |  |
| 60 | 23 | > 30000 |  | O=C1CCC(N2Cc3cc(C4CCN(CC5CC5)CC4)ccc3C2=O)C(=O)N1 (stereo not drawn) [Compound I-3, 3-(5-(1-(cyclopropylmethyl)piperidin-4-yl)-1-oxoisoindolin-2-yl)piperidine-2,6-dione] |  |
| 60 | 31 | > 30000 |  | CC(C)CN1CCC(c2ccc3c(c2)CN(C2CCC(=O)NC2=O)C3=O)CC1 (stereo not drawn) [Compound I-4, 3-(5-(1-isobutylpiperidin-4-yl)-1-oxoisoindolin-2-yl) piperidine-2,6-dione] |  |
| 60 | 27 | > 30000 |  | O=C1CCC(N2Cc3cc(C4CCN(CC5CCC5)CC4)ccc3C2=O)C(=O)N1 (stereo not drawn) [Compound I-5, 3-(5-(1-(cyclobutylmethyl)piperidin-4-yl)-1-oxoisoindolin-2-yl)piperidine-2,6-dione] |  |
| 60 | 85 | > 30000 |  | O=C1CCC(N2Cc3cc(C4CCN(Cc5cnc(Cl)s5)CC4)ccc3C2=O)C(=O)N1 (stereo not drawn) [Compound I-10, 3-(5-(1-((2-chlorothiazol-5-yl)methyl)piperidin-4-yl)-1-oxoisoindolin-2-yl)piperidine-2,6-dione] |  |
| 60 | 29 | > 30000 |  | O=C1CCC(N2Cc3cc(C4CCN(CC5CCOCC5)CC4)ccc3C2=O)C(=O)N1 (stereo not drawn) [Compound I-13, 3-(1-oxo-5-(1-((tetrahydro-2H-pyran-4-yl)methyl)piperidin-4-yl)isoindolin-2-yl)piperidine-2,6-dione] |  |
| 65 | 14 | > 30000 |  | O=C1CCC(N2Cc3cc(C4CCN(CCc5ccccc5)CC4)ccc3C2=O)C(=O)N1 (stereo not drawn) [Compound I-14, 3-(1-oxo-5-(1-phenethylpiperidin-4-yl)isoindolin-2-yl)piperidine-2,6-dione] |  |
| 70 | 8 | > 30000 |  | O=C1CCC(N2Cc3cc(C4CCN(Cc5cccc(Cl)c5)CC4)ccc3C2=O)C(=O)N1 (stereo not drawn) [Compound I-16, 3-(5-(1-(3-chlorobenzyl)piperidin-4-yl)-1-oxoisoindolin-2-yl)piperidine-2,6-dione] |  |
| 65 | 19 | > 30000 |  | O=C1CCC(N2Cc3cc(C4CCN(Cc5ccccc5Cl)CC4)ccc3C2=O)C(=O)N1 (stereo not drawn) [Compound I-18, 3-(5-(1-(2-chlorobenzyl)piperidin-4-yl)-1-oxoisoindolin-2-yl)piperidine-2,6-dione] |  |
| 60 | 39 | > 30000 |  | O=C1CCC(N2Cc3cc(C4CCN(Cc5c(F)cccc5F)CC4)ccc3C2=O)C(=O)N1 (stereo not drawn) [Compound I-24, 3-(5-(1-(2,6-difluorobenzyl)piperidin-4-yl)-1-oxoisoindolin-2-yl)piperidine-2,6-dione] |  |
| 65 | 7 | > 30000 |  | O=C1CCC(N2Cc3cc(C4CCN(Cc5cc(F)cc(F)c5)CC4)ccc3C2=O)C(=O)N1 (stereo not drawn) [Compound I-26, 3-(5-(1-(3,5-difluorobenzyl)piperidin-4-yl)-1-oxoisoindolin-2-yl)piperidine-2,6-dione] |  |
| 70 | 36 | > 30000 |  | O=C1CCC(N2Cc3cc(C4CCN(Cc5cc(F)ccc5F)CC4)ccc3C2=O)C(=O)N1 (stereo not drawn) [Compound I-29, 3-(5-(1-(2,5-difluorobenzyl)piperidin-4-yl)-1-oxoisoindolin-2-yl)piperidine-2,6-dione] |  |
| 80 | 46 | > 30000 |  | O=C1CCC(N2Cc3cc(C4CCN(Cc5ccc(CO)cc5)CC4)ccc3C2=O)C(=O)N1 (stereo not drawn) [Compound I-32, 3-(5-(1-(4-(hydroxymethyl)benzyl)piperidin-4-yl)-1-oxoisoindolin-2-yl)piperidine-2,6-dione] |  |
| 55 | 41 | > 30000 |  | N#Cc1ccccc1CN1CCC(c2ccc3c(c2)CN(C2CCC(=O)NC2=O)C3=O)CC1 (stereo not drawn) [Compound I-38, 2-((4-(2-(2,6-dioxopiperidin-3-yl)-1-oxoisoindolin-5-yl)piperidin-1-yl)methyl)benzonitrile] |  |
| 60 | 9 | > 30000 |  | Cc1ccc(CN2CCC(c3ccc4c(c3)CN(C3CCC(=O)NC3=O)C4=O)CC2)c(C)c1 (stereo not drawn) [Compound I-42, 3-(5-(1-(2,4-dimethylbenzyl)piperidin-4-yl)-1-oxoisoindolin-2-yl)piperidine-2,6-dione] |  |
| 80 | 8 | > 30000 |  | CC(C)c1ccc(CN2CCC(c3ccc4c(c3)CN(C3CCC(=O)NC3=O)C4=O)CC2)cc1 (stereo not drawn) [Compound I-45, 3-(5-(1-(4-isopropylbenzyl)piperidin-4-yl)-1-oxoisoindolin-2-yl)piperidine-2,6-dione] |  |
| 80 | 8 | > 30000 |  | O=C1CCC(N2Cc3cc(C4CCN(Cc5ccc6ccccc6c5)CC4)ccc3C2=O)C(=O)N1 (stereo not drawn) [Compound I-47, 3-(5-(1-(naphthalen-2-ylmethyl)piperidin-4-yl)-1-oxoisoindolin-2-yl)piperidine-2,6-dione] |  |
| 60 | 4 | > 30000 |  | O=C1CCC(N2Cc3cc(C4CCN(Cc5cccc6ccccc56)CC4)ccc3C2=O)C(=O)N1 (stereo not drawn) [Compound I-49, 3-(5-(1-(naphthalen-1-ylmethyl)piperidin-4-yl)-1-oxoisoindolin-2-yl)piperidine-2,6-dione] |  |
| 60 | 15 | > 30000 |  | O=C1CCC(N2Cc3cc(C4CCN(Cc5ccc(OC(F)(F)F)cc5)CC4)ccc3C2=O)C(=O)N1 (stereo not drawn) [Compound I-51, 3-(1-oxo-5-(1-(4-(trifluoromethoxy)benzyl)piperidin-4-yl)isoindolin-2-yl)piperidine-2,6-dione] |  |
| 60 | 20 | > 30000 |  | O=C1CCC(N2Cc3cc(C4CCN(Cc5cccc(OC(F)(F)F)c5)CC4)ccc3C2=O)C(=O)N1 (stereo not drawn) [Compound I-54, 3-(1-oxo-5-(1-(3-(trifluoromethoxy)benzyl)piperidin-4-yl)isoindolin-2-yl)piperidine-2,6-dione] |  |
| 60 | 53 | > 30000 |  | O=C1CCC(N2Cc3cc(C4CCN(Cc5ccccn5)CC4)ccc3C2=O)C(=O)N1 (stereo not drawn) [Compound I-58, 3-(1-oxo-5-(1-(pyridin-2-ylmethyl)piperidin-4-yl)isoindolin-2-yl)piperidine-2,6-dione] |  |

| Structure (SMILES) | inhibition at 10 µM ([1]; 24 h, 10 μM, 24 h) [%] | DC50 [1] [nM] | DC50 [2] [nM] | IKZF2 % protein reduction at 10 μM, 24 h ([1]; 10 μM, 24 h) [%] | inhibition at 10 µM ([1]; 10 μM, 24 h) [%] |
| --- | --- | --- | --- | --- | --- |
| CCN1CCC(c2ccc3c(c2)CN(C2CCC(=O)NC2=O)C3=O)CC1 (stereo not drawn) [Compound I-1, 3-(5-(1-ethylpiperidin-4-yl)-1-oxoisoindolin-2-yl)piperidine-2,6-dione] |  | 67 | > 30000 |  | 60 |

From patent US11053218B2, “3-(1-oxoisoindolin-2-yl)piperidine-2,6-dione derivatives and uses thereof” (Novartis AG, priority 2017, dated 2021)
